Experimental data from patent publication US20150133341A1, “Intra-Operative Cancer Diagnosis Based on a Hyperpolarized Marker” (ALBEDA INNOVATIONS APS, priority 2012, published 2015).

What was measured:
[1] = test system: isolated CE-1 enzyme from porcine liver; experiment: CE-1 activity on short chain esters, 1H NMR; type: biochemical; settings: 37° C.; for k: 26 μmol substrate, conversion over 60 min
Text: To measure almost exclusively the contribution of carboxyl esterase activity from the CE-2 isoform, human breast cancer cells (MCF-7) were employed. These cells are known from literature to express CE-2 but not to express CE-1 (Byun et al, 2008, Cancer letters 266:238-48). A group of esters was investigated as substrates for CE-1, which contained different structural features. These consisted of esters of un-substituted acids (examples are ethyl acetate, ethyl butyrate, methyl butyrate), esters of acids substituted on C2 (examples are ethyl lactate and ethyl 2-acetoxy propanoate), esters of acids substituted on C3 (examples are ethyl 3-hydroxy butyrate and ethyl 3-acetoxy butanoate), esters of ring closed acids (example ethyl pyroglutamate), esters of di-acids (examples are diethyl succinate and dimethyl succinate), esters of tri-acids (example triethyl citrate), ethyl esters of beta-keto acids (example ethyl acetoacetate). Also esters with large alcohol groups and small acid groups were investigated. In this group, the acid part of the molecule was always acetate and different structural properties of the alcohol were investigated. These consisted of esters of un-substituted alcohols (examples ethyl acetate and butyl acetate), esters of branched chain alcohols (examples t-butyl acetate, ethyl 3-acetoxy butanoate and 2-acetoxy propionate), esters of aromatic alcohols (example benzyl acetate), esters of diols (example ethyleneglycol diacetate), esters of triols (example triacetin). […] Similarly, a group of esters which contained different structural features was investigated as substrates for CE-2. CE-2 substrates are described in the literature to consist of a small acid group and a larger alcohol group. All included esters were acetate esters (i.e. esters of acetic acid) in the interest of keeping the acid moiety the smallest possible. The acetate esters measured for CE-2 activity were therefore the same as those measured in the second group of possible substrates for CE-1.
The CE-1 experiments were performed with commercially available CE-1 from porcine liver. Individual samples of the substrates were all prepared the following way: 26 μmol was weighted in an eppendorf tube. 550 μl deuterated phosphate buffer (200 mM, pH 7.5) was added and the substrate was brought into solution by whirl mixing. The solution was transferred to a 5 mm NMR tube and inserted in the spectrometer at 37° C. A reference experiment was acquired on the substrate solution without enzyme after which 10 μl of an esterase stock solution (37 U/ml in deuterated phosphate buffer) was added in the top of the tube. The sample was mixed and returned to the spectrometer. A series of thermal 1D ^1H NMR experiments were recorded every 5 min for 60 min. The data were analysed with MNOVA software and measured as percentage conversion of substrate calculated to account for the amount of substrate converted over 60 min. The numbers are given in μmol/min.

[2] = test system: carboxyl esterase in lysed lymphocytes (B + T cells); experiment: Carboxyl esterase activity in cell extract, 1H NMR; type: biochemical, human; settings: 5 million lysed cells; for Metabolic conversion, Lymphocytes (B + T cells): 37° C.
Protocol: (§1) The hydrolysis of the substrates was investigated in cell extracts. To test substrates without isotope labelling for carboxyl esterase activity in a cellular background, a ^1H NMR assay was applied. Human breast cancer cells (MCF-7) and human prostate cancer cells (PC-3) were grown in RPMI medium with 10% FBS and antibiotics. They were at confluence harvested by trypsination and washed once with 5 ml PBS. They were spun down and resuspended in PBS to a concentration of 20 mill. cells/ml. The cells were hereafter sonicated on ice (50% amplitude, 1 min, 3 sec pulse). Human lymphocytes were purified from whole blood. Whole blood samples were drawn from healthy volunteer into heparinised venous blood collection tubes (Venosafe vacumtubes from Terumo). For each experiment, the blood was purified freshly: Three and a half 10 mL tubes of blood were pooled in each of four 50 mL Leucosep (Greiner) tubes prepared with 15 mL Histopaque 1077 (Sigma). The Leucosep tubes were spun for 15 min at 800× g at 24 C. The plasma was removed and the white blood cells were transferred to a 50 mL falcon tube by decanting and diluted 1:2 in PBS-Mg—Ca for a total volume of 50 mL. The cells were sedimented by centrifugation at 250×g for 60 min. Diluting with trypan blue and counting in hemocytometer determined the total number of lymphocytes before sedimentation. All cells were viable and the total number of cells in each cell batch was approx. 60 million. The lymphocytes were redissolved to a concentration of 20 million cells/ml. The cells were hereafter sonicated on ice (50% amplitude, 1 min, 3 sec pulse).
(§2) 250 μl sonicated cell suspension was mixed with 250 μl 400 mM phosphate buffer pH 7.3. This solution was transferred to a 5 mm NMR tube and warmed on a water bath to 37° C. The substrate was added (50 μl, 60 mM) and the tube turned for mixing before it was inserted into the spectrometer. The data was analyzed with MNOVA software and measured as percentage conversion of substrate calculated to account for the amount of substrate converted over 60 min; numbers are given in μmol/hour.

[3] = test system: carboxyl esterase in lysed breast cancer cells (MCF-7); experiment: Carboxyl esterase activity in cell extract, 1H NMR; type: biochemical, human; settings: 5 million lysed cells; for Metabolic conversion, Breast cancer cells MCF-7: 37° C.
Protocol: as §1, §2

[4] = test system: carboxyl esterase in lysed prostate cancer cells (PC-3); experiment: Carboxyl esterase activity in cell extract, 1H NMR; type: biochemical, human; settings: for Metabolic conversion, Prostate cancer cells PC-3: 37° C.
Protocol: as §1, §2

[5] = acetate vs ethyl ester function

Row | SMILES | k (μmol/min), acetate ester ([1]; hydrolysis of the acetate ester function, 60 min) [µmol/min] | k (μmol/min), ethyl ester ([1]; hydrolysis of the ethyl ester function, 60 min) [µmol/min] | Lymphocytes (B + T cells) Ratio acetate/ethyl [2, 5] | Breast cancer cells MCF-7 Ratio acetate/ethyl [3, 5] | Prostate cancer cells PC-3 Ratio acetate/ethyl ([4]; 5 million lysed cells, acetate vs ethyl ester function) | k [1] [µmol/min] | Metabolic conversion, Lymphocytes (B + T cells) [2] [µmol/h] | Metabolic conversion, Breast cancer cells MCF-7 [3] [µmol/h] | Metabolic conversion, Prostate cancer cells PC-3 ([4]; 5 million lysed cells) [µmol/h] | metabolic conversion in prostate cancer cells compared to lymphocytes ([4]; cell number basis, positive contrast) [times]
1 | CCOC(=O)CC(C)OC(C)=O (centres unmarked) [ethyl 3-acetoxy butanoate] | 0 | 0.08 | 1 | 2 | 9 |  |  |  |  | 
2 | CC(=O)OCc1ccccc1 [Benzyl acetate] |  |  |  |  |  | 0.07 | 0.39 | 1.05 | 22 | ~60
3 | CC(=O)OCC(COC(C)=O)OC(C)=O [Tri-acetin] |  |  |  |  |  | 0.02 | 0.18 | 0.27 | 1.8 | 
